These are literature values, as cited in patent US20070116750A1, “Compositions for disrupting and inhibiting reconstitution of wound biofilm” (priority 2005, published 2007).

The data set deals with established biofilm. The following applies: applied at full strength to an established biofilm.

Consider `OCl` [sodium hypochlorite], for which the biofilm killed was 50%.
